The source of these data is US7074959B2, “Methods and systems for remediating hydrazine-contaminated equipment and/or surfaces” (New Mexico Highlands University, priority 2002, dated 2006).

Structures are written as SMILES.

Series [1] is described as follows: solubility of the hydrazine/2-ketoglutaric acid adduct in water. The format is physicochemical. Conditions: allows separation of most of the adduct by simple filtration. From the text: FIG. 3 illustrates a schematic diagram 300 depicting a reaction of 2-ketoglutataric acid, which provides a near quantitative conversion of hydrazine to a 6-oxo-1,4,5,6-tetrahydro-pyridazine-3-carbonic acid, a preferred embodiment of the present invention. In general, the chemical transformation depicted in schematic diagram 300 of FIG. 3 allows for the removal of hydrazine from aqueous solutions generated by the decontamination processes described herein. The reaction with concentrated hydrazine also can provide the desired product with some evolution of heat.

The conditions of series [2]: MSDS listing; cited from earlier work.

As for `O=C1CCC(C(=O)O)=NN1` [6-oxo-1,4,5,6-tetrahydro-pyridazine-3-carbonic acid], the solubility in water result in series [1] was “low solubility”. Moreover, in series [2], the “known acute toxicities listed in MSDS” value is listed as “does not list any known acute toxicities”.
